From EP4640052A1 (BASF SE, priority 2024, dated 2025)
Several values for one entry are separate records, joined by “and”; a condition that tells them apart may be missing. Identical values can stand only once.

Tests used:
Monilinia sp. (MONISP) = assay: microbe, parasite or virus in culture; type: cell-based
[1] = system: Pyricularia oryzae (PYRIOR); assay: microbe, parasite or virus in culture; type: cell-based; conditions: for inhibition of growth at 0.063 ppm / inhibition of growth at 0.016 ppm / inhibition of growth at 1 ppm / inhibition of growth at 0.004 ppm / inhibition of growth at 0.25 ppm: Pyricularia oryzae, 168 h, read-out: Observed efficacy; for Observed efficacy: single active
[2] = system: Septoria tritici (SEPTTR); assay: microbe, parasite or virus in culture; type: cell-based
[3] = system: Puccinia triticina (syn. P. recondita); assay: Green house use example 9: curative control of brown rust on wheat (PUCCRT K4); type: in vivo
[4] = system: Sclerotinia sclerotiorum (SCLESC); assay: microbe, parasite or virus in culture; type: cell-based; conditions: for inhibition of growth at 0.063 ppm / inhibition of growth at 1 ppm / inhibition of growth at 0.016 ppm / inhibition of growth at 0.25 ppm: Sclerotinia sclerotiorum, 168 h, read-out: Observed efficacy
[5] = system: Blumeria graminis f. sp. tritici; assay: Green house use example 11: control of powdery mildew on wheat, sprayed 2 days after inoculation (ERYSGT K2); type: in vivo; conditions: G143A strain, single active
Phakopsora pachyrhizi [6] = assay: Green house use example 14: protective control of soybean rust on soybeans (PHAKPA F129L P2); type: in vivo; conditions: single compound
[7] = system: Alternaria solani (ALTESO); assay: microbe, parasite or virus in culture; type: cell-based
Phakopsora pachyrhizi [8] = assay: Green house use example 13: curative control of soybean rust on soybeans (PHAKPA F129L K4); type: in vivo
[9] = system: Pyrenophora teres (PYRNTE), Qol resistant (F129L); assay: microbe, parasite or virus in culture; type: cell-based; conditions: for inhibition of growth at 0.016 ppm / inhibition of growth at 0.063 ppm / inhibition of growth at 0.25 ppm / inhibition of growth at 1 ppm: Pyrenophora teres, 168 h, read-out: Observed efficacy
[10] = system: Puccinia triticina (syn. P. recondita); assay: Green house use example 10: preventative control of brown rust on wheat (PUCCRT P10); type: in vivo
[11] = Monilinia, 168 h, read-out: Observed efficacy
[12] = Zymoseptoria tritici, 168 h, read-out: Observed efficacy
[13] = Trial 1, single compound, 1 ppm
[14] = Trial 1, single compound, 4 ppm
[15] = Trial 2, single compound, 1 ppm
[16] = Trial 2, single compound, 2 ppm
[17] = Alternaria solani, 168 h, read-out: Observed efficacy
[18] = Trial 3, single compound, 4 ppm
[19] = Trial 2, single compound, 4 ppm
[20] = Trial 1, single compound, 2 ppm

Molecule: CO/C=C(/C(=O)OC)c1cccc(Br)c1CO/N=C(\COC)c1c(F)cc(F)cc1F [I.11, Methyl (E)-2-[3-bromo-2-[[(Z)-[2-methoxy-1-(2,4,6-trifluorophenyl)ethylidene]-amino]oxymethyl]phenyl]-3-methoxy-prop-2-enoate]
- inhibition of growth at 0.001 ppm (Monilinia sp. (MONISP); [11]): 0%
- inhibition of growth at 0.004 ppm (Monilinia sp. (MONISP); [11]): 17%
- inhibition of growth at 0.063 ppm [1]: 34%
- inhibition of growth at 0.063 ppm [2, 12]: 0%
- inhibition of growth at 0.25 ppm [2, 12]: 14%
- inhibition of growth at 1 ppm [2, 12]: 70%
- Observed efficacy [3, 13]: 1
- Observed efficacy [3, 14]: 14
- Observed efficacy [3, 15]: 0
- Observed efficacy [3, 16]: 0
- inhibition of growth at 0.063 ppm [4]: 2%
- Observed efficacy ([5]; 63 ppm): 14
- Observed efficacy (Phakopsora pachyrhizi [6]; 0.5 ppm): 59
- inhibition of growth at 0.063 ppm [7, 17]: 0%
- inhibition of growth at 0.25 ppm [7, 17]: 0%
- Observed efficacy (Phakopsora pachyrhizi [8]; [14]): 12
- Observed efficacy (Phakopsora pachyrhizi [8]; [18]): 12
- inhibition of growth at 0.016 ppm [9]: 6%
- inhibition of growth at 0.063 ppm [9]: 44%
- inhibition of growth at 0.25 ppm [9]: 71%

Molecule: CO/C=C(/C(=O)OC)c1cccc(Br)c1CO/N=C(\COC)c1ccccc1 [I.2, Methyl (E)-2-[3-bromo-2-[[(Z)-(2-methoxy-1-phenyl-ethylidene)amino]oxymethyl]-phenyl]-3-methoxy-prop-2-enoate]
- inhibition of growth at 0.001 ppm (Monilinia sp. (MONISP); [11]): 0%
- inhibition of growth at 0.016 ppm (Monilinia sp. (MONISP); [11]): 0%
- inhibition of growth at 0.063 ppm (Monilinia sp. (MONISP); [11]): 18%
- inhibition of growth at 0.016 ppm [1]: 0%
- inhibition of growth at 0.063 ppm [1]: 0%
- inhibition of growth at 1 ppm [1]: 31%
- inhibition of growth at 0.063 ppm [4]: 7%
- inhibition of growth at 1 ppm [4]: 41%
- inhibition of growth at 0.063 ppm [7, 17]: 36%
- inhibition of growth at 0.016 ppm [9]: 7%
- inhibition of growth at 0.063 ppm [9]: 34%
- inhibition of growth at 0.25 ppm [9]: 44%
- inhibition of growth at 1 ppm [9]: 60%

Molecule: N#Cc1c[nH]cc1-c1cccc2c1OC(F)(F)O2 [fludioxonil, reference compound]
- inhibition of growth at 0.004 ppm (Monilinia sp. (MONISP); [11]): 8%
- inhibition of growth at 0.004 ppm [1]: 8%
- inhibition of growth at 0.016 ppm [1]: 35%
- inhibition of growth at 0.063 ppm [1]: 59%
- inhibition of growth at 0.25 ppm [1]: 59%
- inhibition of growth at 0.063 ppm [2, 12]: 5%
- inhibition of growth at 0.25 ppm [2, 12]: 5%
- inhibition of growth at 1 ppm [2, 12]: 0%
- inhibition of growth at 0.063 ppm [4]: 67%
- inhibition of growth at 0.016 ppm [7, 17]: 5%
- inhibition of growth at 0.063 ppm [7, 17]: 29%
- inhibition of growth at 0.063 ppm [9]: 51%

Molecule: CO/C=C(/C(=O)OC)c1cccc(F)c1CO/N=C(\COC)c1c(F)cc(F)cc1F [I.8, Methyl (E)-2-[3-fluoro-2-[[(Z)-[2-methoxy-1-(2,4,6-trifluorophenyl)ethylidene]amino]-oxymethyl]phenyl]-3-methoxy-prop-2-enoate]
- inhibition of growth at 0.25 ppm (Monilinia sp. (MONISP); [11]): 42%
- inhibition of growth at 0.016 ppm [1]: 0%
- inhibition of growth at 0.063 ppm [1]: 0%
- inhibition of growth at 0.25 ppm [1]: 2%
- inhibition of growth at 1 ppm [1]: 18%
- inhibition of growth at 0.063 ppm [4]: 0%
- inhibition of growth at 0.016 ppm [7, 17]: 2%
- inhibition of growth at 0.063 ppm [7, 17]: 0%
- inhibition of growth at 0.25 ppm [7, 17]: 4%
- inhibition of growth at 1 ppm [7, 17]: 59%
- inhibition of growth at 0.016 ppm [9]: 1%
- inhibition of growth at 0.063 ppm [9]: 14%
- inhibition of growth at 0.25 ppm [9]: 20%
- inhibition of growth at 1 ppm [9]: 44%

Molecule: CO/C=C(/C(=O)OC)c1cccc(Cl)c1CO/N=C(\COC)c1ccc(F)cc1F [I.6, Methyl (E)-2-[3-chloro-2-[[(Z)-[1-(2,4-difluorophenyl)-2-methoxy-ethylidene]amino]-oxymethyl]phenyl]-3-methoxy-prop-2-enoate]
- inhibition of growth at 0.016 ppm (Monilinia sp. (MONISP); [11]): 10%
- inhibition of growth at 0.063 ppm (Monilinia sp. (MONISP); [11]): 7%
- inhibition of growth at 0.004 ppm [1]: 0%
- inhibition of growth at 0.016 ppm [1]: 0%
- inhibition of growth at 0.063 ppm [1]: 0%
- inhibition of growth at 1 ppm [1]: 24%
- inhibition of growth at 0.016 ppm [4]: 4%
- inhibition of growth at 0.063 ppm [4]: 5%
- inhibition of growth at 1 ppm [4]: 47%
- inhibition of growth at 0.016 ppm [7, 17]: 10%
- inhibition of growth at 0.063 ppm [7, 17]: 18%
- inhibition of growth at 0.25 ppm [7, 17]: 34%
- inhibition of growth at 0.016 ppm [9]: 2%
- inhibition of growth at 0.063 ppm [9]: 27%
- inhibition of growth at 0.25 ppm [9]: 42%
- inhibition of growth at 1 ppm [9]: 54%

Molecule: Cc1cccc(-n2nnn(C)c2=O)c1COc1ccn(-c2ccc(Cl)cc2)n1 [metyltetraprole, reference compound]
- Observed efficacy (Monilinia sp. (MONISP)): 17
- Observed efficacy ([1]; 0.016 ppm): 30%
- Observed efficacy ([1]; 0.063 ppm): 70%
- Observed efficacy [7]: 22

Molecule: CO/C=C(/C(=O)OC)c1cccc(C)c1CO/N=C(\COC)c1c(F)cc(F)cc1F [I.10, Methyl (E)-3-methoxy-2-[2-[[(Z)-[2-methoxy-1-(2,4,6-trifluorophenyl)ethylidene]-amino]oxymethyl]-3-methyl-phenyl]prop-2-enoate]
- inhibition of growth at 0.063 ppm [1]: 43%
- inhibition of growth at 0.063 ppm [2, 12]: 0%
- inhibition of growth at 0.25 ppm [2, 12]: 26%
- inhibition of growth at 1 ppm [2, 12]: 55%
- Observed efficacy [3, 13]: 3
- Observed efficacy [3, 14]: 14
- inhibition of growth at 0.016 ppm [4]: 0%
- inhibition of growth at 0.063 ppm [4]: 3%
- inhibition of growth at 0.25 ppm [4]: 13%
- Observed efficacy ([5]; 16 ppm): 7
- inhibition of growth at 0.016 ppm [7, 17]: 0%
- inhibition of growth at 0.063 ppm [7, 17]: 0%
- inhibition of growth at 0.25 ppm [7, 17]: 0%
- Observed efficacy (Phakopsora pachyrhizi [8]; [15]): 13
- Observed efficacy (Phakopsora pachyrhizi [8]; [19]): 22
- Observed efficacy (Phakopsora pachyrhizi [8]; [18]): 32
- inhibition of growth at 0.016 ppm [9]: 15%
- inhibition of growth at 0.063 ppm [9]: 40%
- inhibition of growth at 1 ppm [9]: 65%

Molecule: CO/C=C(/C(=O)OC)c1cccc(C)c1CO/N=C(\COC)c1ccc(F)cc1 [I.4, Methyl (E)-2-[2-[[(Z)-[1-(4-fluorophenyl)-2-methoxy-ethylidene]amino]oxymethyl]-3-methyl-phenyl]-3-methoxy-prop-2-enoate]
- inhibition of growth at 0.016 ppm [1]: 28%
- inhibition of growth at 0.063 ppm [2, 12]: 16%
- inhibition of growth at 0.25 ppm [2, 12]: 43%
- Observed efficacy [3, 15]: 49
- inhibition of growth at 0.016 ppm [4]: 0%
- inhibition of growth at 0.063 ppm [4]: 0%
- inhibition of growth at 1 ppm [4]: 41%
- inhibition of growth at 0.063 ppm [7, 17]: 50%
- Observed efficacy (Phakopsora pachyrhizi [8]; [20]): 36
- Observed efficacy ([10]; wheat, sprayed 10 days before inoculation, single active, 2 ppm): 12
- inhibition of growth at 0.063 ppm [9]: 39%
- inhibition of growth at 1 ppm [9]: 64%

Molecule: OC(Cc1ccccc1Cl)(Cn1nc[nH]c1=S)C1(Cl)CC1 (stereo not drawn) [prothioconazole, reference compound]
- inhibition of growth at 0.004 ppm (Monilinia sp. (MONISP); [11]): 19%
- inhibition of growth at 0.25 ppm [1]: 1%
- inhibition of growth at 1 ppm [1]: 12%
- inhibition of growth at 0.063 ppm [2, 12]: 5%
- inhibition of growth at 0.25 ppm [2, 12]: 67%
- inhibition of growth at 0.25 ppm [7, 17]: 10%
- inhibition of growth at 1 ppm [7, 17]: 14%

Molecule: CO/C=C(/C(=O)OC)c1cccc(C)c1CO/N=C(\COC)c1ccccc1 [I.3, Methyl (E)-3-methoxy-2-[2-[[(Z)-(2-methoxy-1-phenyl-ethylidene)amino]oxymethyl]-3-methyl-phenyl]prop-2-enoate]
- inhibition of growth at 0.063 ppm (Monilinia sp. (MONISP); [11]): 51%
- inhibition of growth at 0.016 ppm [1]: 33%
- inhibition of growth at 0.016 ppm [2, 12]: 0%
- inhibition of growth at 0.063 ppm [2, 12]: 21%
- inhibition of growth at 0.25 ppm [2, 12]: 49%
- inhibition of growth at 0.016 ppm [4]: 0%
- inhibition of growth at 0.063 ppm [4]: 3%
- inhibition of growth at 0.25 ppm [4]: 2%
- inhibition of growth at 0.004 ppm [7, 17]: 11%
- inhibition of growth at 0.016 ppm [7, 17]: 32%
- inhibition of growth at 0.063 ppm [7, 17]: 59%
- inhibition of growth at 0.016 ppm [9]: 26%
- inhibition of growth at 0.063 ppm [9]: 43%
- inhibition of growth at 0.25 ppm [9]: 51%
- inhibition of growth at 1 ppm [9]: 62%

Molecule: Cn1cc(C(=O)Nc2ccccc2-c2cc(F)c(F)c(F)c2)c(C(F)F)n1 [fluxapyroxad, reference compound]
- Observed efficacy ([1]; 1 ppm): 19%
- Observed efficacy ([3]; 1 ppm): 20
- Observed efficacy ([3]; 2 ppm): 67
- Observed efficacy ([10]; 1 ppm): 42

Molecule: mancozeb [reference compound]
- Observed efficacy ([1]; 0.004 ppm): 11%
- Observed efficacy ([1]; 0.016 ppm): 34%
- Observed efficacy ([1]; 0.063 ppm): 54%
- Observed efficacy [2]: 18 and 19 and 13
- Observed efficacy [4]: 59
- Observed efficacy [9]: 59

Molecule: O=C(Nc1ccccc1F)c1ccc(-c2noc(C(F)(F)F)n2)cc1 [flufenoxadiazam, reference compound]
- Observed efficacy ([1]; 0.004 ppm): 2%
- Observed efficacy [2]: 2 and 3
- Observed efficacy (Phakopsora pachyrhizi [6]; 0.5 ppm): 0
- Observed efficacy (Phakopsora pachyrhizi [6]; 2 ppm): 63
- Observed efficacy (Phakopsora pachyrhizi [8]; [20]): 15
- Observed efficacy (Phakopsora pachyrhizi [8]; [14]): 31
- Observed efficacy (Phakopsora pachyrhizi [8]; [16]): 17
- Observed efficacy (Phakopsora pachyrhizi [8]; [19]): 34
- Observed efficacy [9]: 5

Molecule: metarylpicoxamid
- Observed efficacy (Phakopsora pachyrhizi [8]; Trial 3, single compound, 1 ppm): 20
- Observed efficacy (Phakopsora pachyrhizi [8]; Trial 3, single compound, 2 ppm): 66

Molecule: CO/C=C(/C(=O)OC)c1cccc(Cl)c1CO/N=C(\COC)c1ccc(F)cc1 [I.5, Methyl-(E)-2-[3-chloro-2-[[(Z)-[1-(4-fluorophenyl)-2-methoxy-ethylidene]amino]-oxy¬imethyl]phenyl]-3-methoxy-prop-2-enoate]
- Observed efficacy (Monilinia sp. (MONISP)): 56
- Observed efficacy ([1]; 0.063 ppm): 28%
- Observed efficacy [4]: 0

Molecule: CC(O)(Cn1cncn1)c1ccc(Oc2ccc(Cl)cc2)cc1C(F)(F)F (racemic) [mefentrifluconazole, reference compound]
- Observed efficacy ([1]; 0.063 ppm): 0%
- Observed efficacy ([1]; 1 ppm): 53%
- Observed efficacy ([3]; 1 ppm): 39
- Observed efficacy ([3]; 4 ppm): 54
- Observed efficacy [7]: 27
- Observed efficacy [9]: 40 and 22
